The values below are quoted from earlier work in article PMC9516332 (Frontiers in Oncology, 2022).

Where two headings read alike, the source gives them in different places.

Holding throughout (conditions): cited from earlier work
The target of data set [1] is panel of 255 wild-type kinases (Homo sapiens, UniProt Q8IU85).
The target in data set [2] is T1, panel of 255 wild-type kinases (Homo sapiens, UniProt Q15139).
T1 sequence (Q15139 1-912): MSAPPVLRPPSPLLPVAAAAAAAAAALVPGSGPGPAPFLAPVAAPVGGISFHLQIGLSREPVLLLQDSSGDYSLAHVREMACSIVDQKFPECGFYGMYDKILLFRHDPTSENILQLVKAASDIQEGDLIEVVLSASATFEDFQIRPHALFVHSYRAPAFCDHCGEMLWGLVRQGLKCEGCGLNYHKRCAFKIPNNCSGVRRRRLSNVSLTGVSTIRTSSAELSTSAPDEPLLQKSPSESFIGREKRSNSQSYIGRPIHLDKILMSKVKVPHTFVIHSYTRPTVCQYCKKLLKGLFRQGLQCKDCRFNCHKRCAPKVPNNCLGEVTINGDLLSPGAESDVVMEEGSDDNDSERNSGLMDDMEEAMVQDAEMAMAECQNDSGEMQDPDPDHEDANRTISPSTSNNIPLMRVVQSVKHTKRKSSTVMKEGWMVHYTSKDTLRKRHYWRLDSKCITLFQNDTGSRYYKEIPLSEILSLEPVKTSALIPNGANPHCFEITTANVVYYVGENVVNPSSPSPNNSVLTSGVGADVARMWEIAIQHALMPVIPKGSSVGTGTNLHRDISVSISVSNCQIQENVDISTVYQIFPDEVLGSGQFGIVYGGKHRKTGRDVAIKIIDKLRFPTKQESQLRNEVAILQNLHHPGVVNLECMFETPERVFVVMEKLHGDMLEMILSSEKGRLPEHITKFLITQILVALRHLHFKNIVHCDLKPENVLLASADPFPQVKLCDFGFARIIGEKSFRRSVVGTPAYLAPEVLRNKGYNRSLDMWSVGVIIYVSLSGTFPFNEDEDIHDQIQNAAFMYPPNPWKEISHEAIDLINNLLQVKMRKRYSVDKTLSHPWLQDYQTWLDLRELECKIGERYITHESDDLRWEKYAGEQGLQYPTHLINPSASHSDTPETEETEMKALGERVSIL

In data set [3] the target is panel of 255 wild-type kinases (Homo sapiens, UniProt P49841).
Data set [4] has as its target panel of 255 wild-type kinases (Homo sapiens, UniProt P54646).
Data set [5] has as its target panel of 255 wild-type kinases (Homo sapiens, UniProt Q06187).
The target of data set [6] is panel of 255 wild-type kinases (Homo sapiens, UniProt P07949).
Data set [7] concerns the target panel of 255 wild-type kinases (Homo sapiens, UniProt Q9UM73).
For data set [8], the target named is T2, panel of 255 wild-type kinases (Homo sapiens, UniProt P54760).
T2 sequence (P54760 16-987): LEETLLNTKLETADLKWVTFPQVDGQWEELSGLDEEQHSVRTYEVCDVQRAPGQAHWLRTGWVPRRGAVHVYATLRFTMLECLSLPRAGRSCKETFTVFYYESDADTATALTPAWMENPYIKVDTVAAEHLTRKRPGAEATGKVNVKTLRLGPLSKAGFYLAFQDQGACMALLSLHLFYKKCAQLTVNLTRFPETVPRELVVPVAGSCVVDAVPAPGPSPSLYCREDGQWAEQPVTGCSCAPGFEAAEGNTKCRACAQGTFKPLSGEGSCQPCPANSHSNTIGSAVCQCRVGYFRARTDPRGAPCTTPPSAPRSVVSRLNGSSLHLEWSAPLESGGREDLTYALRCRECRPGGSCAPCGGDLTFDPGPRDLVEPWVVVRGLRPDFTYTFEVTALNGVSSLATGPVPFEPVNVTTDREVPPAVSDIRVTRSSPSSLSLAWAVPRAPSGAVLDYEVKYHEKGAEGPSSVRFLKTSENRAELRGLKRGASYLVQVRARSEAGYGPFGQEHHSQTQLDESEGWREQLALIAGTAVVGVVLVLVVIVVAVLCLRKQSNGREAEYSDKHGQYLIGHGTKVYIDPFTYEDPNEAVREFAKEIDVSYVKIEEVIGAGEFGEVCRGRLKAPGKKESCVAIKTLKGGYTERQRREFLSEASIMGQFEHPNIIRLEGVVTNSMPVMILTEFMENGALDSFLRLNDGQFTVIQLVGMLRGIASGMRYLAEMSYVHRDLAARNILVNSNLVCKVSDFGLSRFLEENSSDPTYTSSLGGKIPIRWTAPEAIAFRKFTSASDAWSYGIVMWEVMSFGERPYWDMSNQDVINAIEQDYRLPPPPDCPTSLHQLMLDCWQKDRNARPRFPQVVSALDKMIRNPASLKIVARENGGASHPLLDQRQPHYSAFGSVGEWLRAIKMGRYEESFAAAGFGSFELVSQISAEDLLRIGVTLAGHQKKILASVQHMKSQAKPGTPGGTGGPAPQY

Data set [9] has as its target panel of 255 wild-type kinases (Homo sapiens, UniProt Q13131).
The target in data set [10] is panel of 255 wild-type kinases (Homo sapiens, UniProt Q08345).
The mark [11] stands for this setting: CaMK1δ kinase assay, 1 µmol/L single concentration, ref DOI: 10.1158/1535-7163.MCT-18-0877.
The mark [12] stands for this setting: kinase PKD1, 1 µmol/L single concentration, ref DOI: 10.1158/1535-7163.MCT-18-0877.
Setting [13] is: kinase GSK3β, 1 µmol/L single concentration, ref DOI: 10.1158/1535-7163.MCT-18-0877.
Where [14] appears, read: AMPKα2/β1/γ1 kinase assay, 1 µmol/L single concentration, ref DOI: 10.1158/1535-7163.MCT-18-0877.
Setting [15] is: BTK kinase assay, 1 µmol/L single concentration, ref DOI: 10.1158/1535-7163.MCT-18-0877.
Setting [16] is: kinase RET, 1 µmol/L single concentration, ref DOI: 10.1158/1535-7163.MCT-18-0877.
The mark [17] stands for this setting: ALK kinase assay, 1 µmol/L single concentration, ref DOI: 10.1158/1535-7163.MCT-18-0877.
[18] abbreviates: kinase EPHB4, 1 µmol/L single concentration, ref DOI: 10.1158/1535-7163.MCT-18-0877.
[19] abbreviates: AMPKα1/β1/γ1 kinase assay, 1 µmol/L single concentration, ref DOI: 10.1158/1535-7163.MCT-18-0877.
The mark [20] stands for this setting: kinase DDR1, 1 µmol/L single concentration, ref DOI: 10.1158/1535-7163.MCT-18-0877.

In the case of `O=C(c1ccc(F)c(F)c1Nc1ccc(I)cc1F)N1CC(O)([C@@H]2CCCCN2)C1` [cobimetinib], the “%-inhibition CaMK1δ” value in [1] (setting [11]) is given as 1%. For the same molecule, the “%-inhibition at 1 µmol/L, PKD1” value in [2] (setting [12]) was -5%. The “%-inhibition at 1 µmol/L, GSK3β” value in data set [3] (setting [13]) is on record as -2.44%. In data set [4] (setting [14]), the “%-inhibition AMPKα2/β1/γ1” value is 9%. For the same molecule, the “%-inhibition BTK” value in [5] (setting [15]) is 4%. Moreover, the “%-inhibition at 1 µmol/L, RET” value in [6] (setting [16]) is listed as 4%. Besides, the “%-inhibition ALK” value in data set [7] (setting [17]) was 5%. Moreover, in data set [8] (setting [18]), the “%-inhibition at 1 µmol/L, EPHB4” value was -2.41%. In data set [9] (setting [19]), the “%-inhibition AMPKα1/β1/γ1” value was -0.873%. For the same molecule, the “%-inhibition at 1 µmol/L, DDR1” value in data set [10] (setting [20]) was 6.37%.

For `CC#CC(=O)N1CCC[C@H]1c1nc(-c2ccc(C(=O)Nc3ccccn3)cc2)c2c(N)nccn12` [acalabrutinib], the “%-inhibition CaMK1δ” value in data set [1] (setting [11]) is -5%. The “%-inhibition at 1 µmol/L, PKD1” value in data set [2] (setting [12]) is on record as -9.48%. In data set [3] (setting [13]), the “%-inhibition at 1 µmol/L, GSK3β” value is -2.39%. Moreover, the “%-inhibition AMPKα2/β1/γ1” value in data set [4] (setting [14]) is on record as 3.5%. The “%-inhibition BTK” value in data set [5] (setting [15]) is on record as 95%. Moreover, the “%-inhibition at 1 µmol/L, RET” value in data set [6] (setting [16]) is on record as 14%. Also, in [7] (setting [17]), the “%-inhibition ALK” value was 5.27%. The “%-inhibition at 1 µmol/L, EPHB4” value in data set [8] (setting [18]) is given as -1.45%. In addition, the “%-inhibition AMPKα1/β1/γ1” value in [9] (setting [19]) is -5%. Also, in data set [10] (setting [20]), the “%-inhibition at 1 µmol/L, DDR1” value is given as 8%.

Take `COc1cc(N2CCC(N3CCN(C)CC3)CC2)ccc1Nc1ncc(Cl)c(Nc2ccccc2P(C)(C)=O)n1` [brigatinib]: the “%-inhibition CaMK1δ” value in [1] is reported as 62%. Moreover, in data set [2], the “%-inhibition at 1 µmol/L, PKD1” value is 74%. In addition, in data set [3], the “%-inhibition at 1 µmol/L, GSK3β” value is -1.81%. Moreover, the “%-inhibition AMPKα2/β1/γ1” value in data set [4] is reported as 90%. The “%-inhibition BTK” value in data set [5] is listed as 54%. Besides, in data set [6], the “%-inhibition at 1 µmol/L, RET” value is 96%. Further, in data set [7], the “%-inhibition ALK” value is reported as 100%. Also, the “%-inhibition at 1 µmol/L, EPHB4” value in data set [8] is given as 9%. Further, in [9], the “%-inhibition AMPKα1/β1/γ1” value is given as 80%. In addition, in data set [10], the “%-inhibition at 1 µmol/L, DDR1” value is given as 84%.
